Results: article PMC5855688, “BC-Box Motif-Mediated Neuronal Differentiation of Somatic Stem Cells” (International Journal of Molecular Sciences, 2018)

System: skin-derived precursors (SKPs)
Experiment: Neurite outgrowth / morphological evaluation of neuronal differentiation
Assay type: cell-based, rat (neonate Wistar)
Conditions: delivered with TAT PTD, 1 to 5 μM
Description: Rodent skin-derived precursor cells (SKPs), which can differentiate to neurons, were used. SKPs were previously isolated from the back dermis of neonate Wistar rats by the authors. These cells were cultured in growth medium composed of DMEM/F12 (1:1; Gibco, Grand Island, NY, USA) containing 2% B27 supplement (Gibco), 20 ng/mL epidermal growth factor (EGF; Upstate Biotechnology, Lake Placid, NY, USA), and 40 ng/mL bFGF (PeproTech EC Ltd., Rocky Hill, NJ, USA) in a humidified incubator at 37 °C with 5% CO2. The floating clusters of cultured cells were centrifuged and dissociated into a single-cell suspension by use of a Pasteur pipette with a flame-polished tip. These single cells were then re-suspended into at a concentration of 50,000 cells/mL for passage or experiments. […]
Neurite outgrowth with length exceeding the diameter of the neuronal soma is often assessed as a morphological index of neuronal differentiation. […] Thereafter, neurite outgrowth was evaluated with the following 4 levels: +++, for above 50% of the cells showing neurite outgrowth; ++, for 20–50% with neurite outgrowth; +, for 5–19% having neurite outgrowth; and −, for below 5% of the cells with neurite outgrowth.

Sequence	Neurite Outgrowth Activity (BC-box motif plus five C-terminal amino acids peptides)	Neurite Outgrowth Activity (BC-box motif alone (10-residue) peptides)
YARAAARQARASLTHLCRLEIRSSIK [ASB3 BC-box motif plus five amino acids]	++ (20–50% with neurite outgrowth)	
YARAAARQARASLTHLCRLEI [ASB3 BC-box motif alone]		- (below 5% of the cells with neurite outgrowth)
